Experimental data reported in patent publication US6699877B2 (Gruenenthal GmbH, priority 2000, dated 2004).

Columns and labels:
[1] = molecular target: T1, glycine binding site of the NMDA receptor channel (Rattus norvegicus, UniProt P35439); test: Receptor binding, displacement of (3H)-MDL 105.519 on rat cerebral membrane homogenates; conditions: 1 nmol/l (3H)-MDL 105.519
T1 construct: from tissue; host or cells: rat brain cortex and hippocampus membrane homogenate
Description: Receptor Binding (Glycine Binding Site of the NMDA Receptor Channel)
Experiments to determine the affinity of the compounds according to the invention of Formula I to the glycine binding site of the NMDA receptor channel were carried out on cerebral membrane homogenates (homogenate of Cortex- and Hippocampus-Areal from the brain of male rats, Wistar strain) (B. M. Baron, B. W. Siegel, B. L. Harrison, R. S. Gross, C. and P. Towers, Journal of Pharmacology and Experimental Therapeutics, Vol. 279, p. 62, 1996).
For this purpose, Cortex and Hippocampus from freshly removed rats' brains were dissected, homogenized in 5 mmol/l TRIS-acetate buffer, 0.32 mol/l sacharose pH 7.4 (10 ml/g fresh weight) with a Potter homogenizer (made by Braun/Melsungen, 10 piston strokes at 500 rpm) while cooling with ice and subsequently centrifuged for 10 minutes at 1,000 g and 4° C. The first supernatant material was collected and the sediment homogenized again with […] TRIS-acetate buffer, 0.32 mol/l safcharose pH 7.4 (5 ml/g original fresh weight) using the Potter homogenizer (10 piston strokes at 500 rpm) while cooling with ice and centrifuged for 10 minutes at 1,000 g and 4° C. The resultant supernatant material was combined with the supernatant material from the first centrifugation and centrifuged at 17,000 g for 20 minutes at 4° C. The supernatant material after this centrifugation was discarded, the membrane sediment taken up with 5 mmol/l TRIS-acetate buffer pH 8.0 (20 ml/g original fresh weight) and homogenized with 10 piston strokes at 500 rpm.
The membrane homogenate was then incubated for 1 hour at 4° C. and centrifuged for 30 minutes at 50,000 g and 4° C. The supernatant material was discarded and the centrifuge tube with the membrane sediment sealed with parafilm and frozen for 24 hours at −20° C. The membrane sediment was thawed on the following day, taken up with ice-cold 5 mmol/l TRIS-acetate buffer, 0.1% saponin (w/v) pH 7.0 (10 ml/g original fresh weight), homogenized with 10 piston strokes at 500 rpm and subsequently centrifuged for 20 minutes at 50,00 g and 4° C. The resultant supernatant material was discarded, the sediment taken up in a small volume with 5 mmol/l TRIS-acetate buffer pH 7.0 (about 2 ml/g original fresh weight) and homogenized again with 10 piston strokes at 500 rpm. After determining the protein content, the membrane homogenate was adjusted to a protein concentration of 10 mg protein/ml using 5 mmol/l TRIS-acetate buffer pH 7.0 and frozen in aliquots for testing.
For the receptor binding test, aliquots were thawed, diluted 1:10 with 5 mmol/l TRIS-acetate buffer pH 7.0, homogenized with 10 piston strokes at 500 rpm using the potter homogenizer (10 piston strokes at 500 rpm) while cooling with ice and centrifuged for 60 minutes at 55,000 g at 4° C. The supernatant material was decanted, the membrane sediment adjusted to a protein concentration of 1 mg/ml with ice-cold 50 mmol/l TRIS-acetate buffer pH 7.0, homogenized again with 10 piston strokes at 500 rpm and kept in suspension in the ice bath while stirring on a magnetic stirrer. 100 μl of this membrane homogenate per 1 ml of feedstock was used in each case in the receptor binding test (0.1 mg protein/ml in the final batch).
In the binding test, 50 mmol/l TRIS-acetate buffer pH 7.0 was used as buffer and 1 nmol/l (^3H)-MDL 105.519 (B. M. Baron et al 1996) was used as radioactive ligand. The proportion of unspecific binding was determined in the presence of 1 mmol/l glycine.
In further batches, the compounds according to the invention were added in concentration series and the displacement of the radioactive ligand from its specific binding to the glycine binding site of the NMDA receptor channel determined. The respective triple batches were incubated for 120 minutes at 4° C. and then harvested to determine the radioactive ligands bound to the membrane homogenate by filtration through glass fiber filter mats (GF/B). […]

[2] = tested on: formalin-induced nociception; test: Formalin test, rat (second/late phase); assay type: in vivo; conditions: i.p., 21.5 mg/kg, late phase
Description: Experiments to determine the antinociceptive activity of the compounds according to the invention of Formula I were carried out in the formalin test on male rats (Sprague-Dawley, 150-170 g).
In the formalin test, the first (early) phase (0-15 min after formalin injection) was distinguished from the second (late) phase (15-60 min after formalin injection) (D. Dubuisson, S. G. Dennis, Pain 4, 161-174 (1977)). The early phase, as a direct reaction to the formalin injection, represents a model for acute pain while the late phase is considered as a model for persistent (chronic) pain (T. J. Coderre, J. Katz, A. L. Vaccarino, R. Melzack, Pain, Vol. 52, p. 259,1993).
The compounds according to the invention were investigated in the second phase of the formalin test to obtain information about the effects of substances in chronic/inflammatory pain.
A nociceptive reaction was induced in freely moving experimental animals by a single subcutaneous formalin injection (50 μl, 5%) into the dorsal side of the back right paw, the nociceptive reaction being portrayed by the following behavioral parameters: lifting and holding the respective paw (Score 1), shaking and twitching (Score 2), licking and biting (Score 3). The different behavioral patterns triggered by the formalin injection were recorded continuously by observing the animals in the late phase of the formalin test and were weighted differently in an evaluation. Normal behavior in which the animal loads all four paws uniformly was recorded as score 0. The moment of administration prior to the formalin injection was selected according to the method of administration of the compounds according to the invention (intraperitoneal: 15 min, intravenous: 5 min). The described behavioral patterns (Score 1 to 3) in the animals are reduced and possibly even eliminated after injection of substances which have an antinociceptive effect in the formalin test. A comparisom was made with control animals which had received vehicles (solvents) prior to formalin administration. The nociceptive behavior was calculated as a so-called pain rate (PR). The various behavioral parameters received a different weighting (Factor 0, 1, 2, 3). Calculation took place at partial intervals of 3 min according to the following formula:
Substance and vehicle groups include n=10 animals in each case. The effect of the substance was determined as a percentage change versus control on the basis of the PR calculations. The ED50 calculations were made by regression analysis.

inhibition at 10 µM ([1]; 10 μmol/l test substance, read-out: Displacement (%, 10 μmol/l) of radioactive ligand from specific binding): 100%
Ki ([1]; mean from three independent experiments, from IC50 by Cheng-Prussoff equation): 300 nM
SMILES: O=C(O)C1Nc2cc(Cl)cc(Cl)c2C2C=CCC12 (stereo not drawn) [Example 2, 7,9-dichloro-3a,4,5,9b-tetrahydro-3H-cyclopenta[c]quinoline-4-carboxylic Acid]
% inhibition of formalin-induced nociception [2]: 64.5%
